Measured values reported in patent US5387109A (priority 1992, dated 1995).

Each compound was assayed on fructosylamine deglycase (assay: Substrate specificity of the enzyme to amadori compounds (colorimetric determination of hydrogen peroxide formed)). Conditions: substrate concentration 1 mM.
Format: biochemical, Candida guilliermondii 7087
Method: 0.1 ml of 1 mM di-fructosyl-lysine (as dissolved in 0.05M phosphate buffer pH 7.0) is added to 0.4 ml of 0.05M phosphate buffer (pH 7.0) containing 0.3 mM 4-aminoantipyrine, 0.5 mM N-ethyl-N-(2-hydroxy-3-sulfopropyl)-m-toluidine (TOOS) and 2.0 U/ml peroxidase, and the temperature of the resulting system is equilibrated at 37° C. To this is added 0.06 ml of the enzyme solution having a suitable activity, whereupon the variation of the absorbance of the system is measured with a spectrophotometer (U-2000 Model, manufactured by Hitachi Ltd. ). From the calibration curve as formed from a standard solution containing a determined amount of hydrogen peroxide to indicate the relation between the variation of the absorbance and the amount of hydrogen peroxide, the amount of the hydrogen peroxide as formed in the test system is obtained. The amount of the enzyme of forming one micromole of hydrogen peroxide per one minute is defined to be one activity unit.
0.2 ml of 1 mM di-fructosyl-lysine (as dissolved in 0.05M phosphate buffer pH 7.0) is prepared, and the temperature of it is equilibrated at 37° C. To this is added 0.12 ml of the enzyme solution having a suitable activity and reacted for a suitable period of time at 37° C., and the reaction is stopped in a hot water bath of 100° C. To this is added 0.8 ml of 0.05M phosphate buffer (pH 7.0) containing 0.3 mM 4-aminoantipyrine, 0.5 mM TOOS and 2.0 U/ml peroxidase, whereupon the variation of the absorbance of the system is measured with a spectrophotometer (U-2000 Model, manufactured by Hitachi Ltd. ). From the calibration curve as formed from a standard solution containing a determined amount of hydrogen peroxide to indicate the relation between the variation of the absorbance and the amount of hydrogen peroxide, the amount of the hydrogen peroxide as formed in the test system is obtained. The amount of the enzyme of forming one micromole of hydrogen peroxide per one minute is defined to be one activity unit.
The enzyme catalyzes the reaction of decomposing amadori compounds of α-amino acids, β-amino acids, ε-amino acids, D-amino acids and amines to form a glucosone, hydrogen peroxide and the corresponding amino acid or amine. The enzyme not only decomposes amadori compounds of α-amino acids but also effectively acts on other amadori compounds having fructose as bonded to amino groups as positioned in other positions than the α-position of amino acids (for example, di-D-fructosyl-lysine, ε-D-fructosyl-L-lysine).
The concentration of the substrate as employed for the measurement was 2 mM, except for the use of 1 mM for di-D-fructosyl-lysine.
The data of the activity are relative values to the activity to D-fructosyl-glycine being 100.
Di-D-fructosyl-lysine was tested, and the “Activity of the Enzyme (relative values to the activity to D-fructosyl-glycine being 100)” value was 3500.

Same assay, conditions: substrate concentration 2 mM
In the case of `C[C@H](NCC(=O)[C@@H](O)[C@H](O)[C@H](O)CO)C(=O)O` [D-fructosyl-L-alanine], the “Activity of the Enzyme (relative values to the activity to D-fructosyl-glycine being 100)” value is reported as 251. `CN(CC(=O)O)CC(=O)[C@@H](O)[C@H](O)[C@H](O)CO` [D-fructosyl-sarcosine] was tested, and the “Activity of the Enzyme (relative values to the activity to D-fructosyl-glycine being 100)” value was 63. With D-fructosyl-polylysine the “Activity of the Enzyme (relative values to the activity to D-fructosyl-glycine being 100)” value was 34. `O=C(O)[C@H](Cc1ccccc1)NCC(=O)[C@@H](O)[C@H](O)[C@H](O)CO` [D-fructosyl-L-phenylalanine] was tested, and the “Activity of the Enzyme (relative values to the activity to D-fructosyl-glycine being 100)” value was 36. `C[C@@H](NCC(=O)[C@@H](O)[C@H](O)[C@H](O)CO)C(=O)O` [D-fructosyl-D-alanine] was tested, and the “Activity of the Enzyme (relative values to the activity to D-fructosyl-glycine being 100)” value was 26. `CNCC(=O)[C@@H](O)[C@H](O)[C@H](O)CO` [D-fructosyl-methylamine] was tested, and the “Activity of the Enzyme (relative values to the activity to D-fructosyl-glycine being 100)” value was 105. In the case of `N[C@@H](CCCCNCC(=O)[C@@H](O)[C@H](O)[C@H](O)CO)C(=O)O` [D-fructosyl-L-lysine], the “Activity of the Enzyme (relative values to the activity to D-fructosyl-glycine being 100)” value is reported as 1386. For `O=C(O)CCNCC(=O)[C@@H](O)[C@H](O)[C@H](O)CO` [D-fructosyl-β-alanine], the “Activity of the Enzyme (relative values to the activity to D-fructosyl-glycine being 100)” value was 44. In the case of `O=C(O)CNCC(=O)[C@@H](O)[C@H](O)[C@H](O)CO` [D-fructosyl-glycine], the “Activity of the Enzyme (relative values to the activity to D-fructosyl-glycine being 100)” value is reported as 100. With `O=C(CN1CCC[C@H]1C(=O)O)[C@@H](O)[C@H](O)[C@H](O)CO` [D-fructosyl-L-proline] the “Activity of the Enzyme (relative values to the activity to D-fructosyl-glycine being 100)” value was 1348.

These compounds were tested on fructosylamine deglycase (assay: Influence by inhibitors on the enzyme). Conditions: 2 mM inhibitor; 10 mM phosphate buffer pH 6.0; 37° C., 4 minutes.
Format: biochemical, Candida guilliermondii 7087
Method: The influence of a 2 mM inhibitor on the enzyme was as follows: […]
For `[Cu+2]` [Cu^2+], the “Inhibition of the enzyme” value was “strongly inhibited”. `[Ni+2]` [Ni^2+] was tested, and the “Inhibition of the enzyme” value was “strongly inhibited”. In the case of `[Co+2]` [Co^2+], the “Inhibition of the enzyme” value is reported as “strongly inhibited”. For `O=C(O)c1cc[c]([Hg][Cl])cc1` [p-chloromercuribenzoic acid], the “Inhibition of the enzyme” value was “strongly inhibited”. `[Mg+2]` [Mg^2+] was tested, and the “Inhibition of the enzyme” value was “not inhibited”. For `[Zn+2]` [Zn^2+], the “Inhibition of the enzyme” value was “strongly inhibited”. For `[N-]=[N+]=[N-].[Na+]` [NAN3], the “Inhibition of the enzyme” value was “not inhibited”.
